# Measurements from US20250346943A1, “DEGRADER COMPOUNDS OF QSOX1 mRNA” (UNIVERSITY OF FLORIDA RESEARCH FOUNDATION, INCORPORATED, priority 2022, published 2025).
# “Also recorded” adds a separate entry of the source.
# Legend:
# [1] = test system: wild type (WT) QSOX1 5′ UTR RNA hairpin; test: In vitro Chem-CLIP and competitive Chem-CLIP with Cy5-labeled WT RNA; assay type: binding, human
# Protocol: In Vitro Chemical-Crosslinking and Isolation by Pull-down (Chem-CLIP) with Fluorescently Labeled RNA. Cy5-labeled RNA (100 μL, 2 μM) was folded by heating at 95° C. for 2 min in 1× Folding Buffer and cooled on ice. The RNA was then mixed with F1 at the indicated concentrations. The sample was irradiated with UV light (365 nm) for 15 min and then added to 100 μL of azide-disulfide agarose beads (Click Chemistry Tools, 1238-2) pre-washed with 200 μL of 25 mM HEPES, pH 7.0. A click reaction solution was prepared by mixing 30 μL of 250 mM sodium ascorbate, 30 μL of 10 mM CuSO4, and 30 μL of 50 mM THPTA, which was added to the sample. The sample was incubated while rotating at 37° C. for 2 h, briefly centrifuged, and then the supernatant was decanted. The beads were washed six times with 1× Washing Buffer (10 mM Tris-HCl, pH 7, 4 M NaCl, 1 mM EDTA, and 0.05% (v/v) Tween-20) following by incubation with 1× Releasing Buffer (50 mM TCEP and 100 mM K2CO3) at 37° C. for 30 min. An equivalent of iodoacetamide (200 mM) was added to the sample, which was incubated at 37° C. for an additional 30 min. The sample was briefly centrifuged and supernatant containing RNA was carefully transferred to a clean tube. Cy-5 fluorescence in the supernatant was measured with a Molecular Devices SpectraMax M5 plate reader with an excitation wavelength of 640 nm and an emission wavelength of 680 nm. For competitive Chem-CLIP, F1-RIBOTAC was added to the folded the RNA and incubated at room temperature for 15 min prior to the addition of F1. Pull-down was then completed as described above.
# [2] = test system: MDA-MB-231 TBNC cells; test: Viability of MDA-MB-231 cells; assay type: cell-based, human; set-up: dose or concentration left out as unconfirmed; conditions: the highest dose
# [3] = test system: QSOX1-a mRNA; test: QSOX1-a mRNA abundance by RT-qPCR in MDA-MB-231 cells; assay type: cell-based, human; set-up: dose or concentration left out as unconfirmed; conditions: at the, the highest dose
# Protocol: (§1) Analysis of mRNA Abundance by RT-qPCR. Unless stated otherwise, all RT-qPCR experiments were performed to measure nascent RNA levels by using Click-it Nascent RNA Capture Kit (Cat #C10365, Thermo Fisher) per the manufacturer's protocols. Briefly, cells were treated with 0.2 mM of ethynyl uridine (EU) in growth medium for 16 h, after which the medium was replaced with fresh growth medium lacking EU. Compound or ASO treatment was performed at the same time of initial EU treatment, and compounds were replenished after replacing the medium to remove EU. Total RNA was extracted by using a Zymo Quick-RNA Miniprep Kit as per manufacturer's protocol with DNase treatment. The click reaction and pull-down of nascent RNA were performed as described in “In Vitro Chemical-Crosslinking and Isolation by Pull-down (Chem-CLIP) with Fluorescently Labeled RNA”. Reverse transcription (RT) was performed by using 300 ng total RNA and a QScript cDNA synthesis kit (QuantaBio) per manufacturer's protocols qPCR was performed in 384-well plates by using Power SYBR Green Master Mix (Life Technologies) on a QuantStudioS™ Cycler (Applied Biosystems) using the “Comparative Ct with Melt” method.
# [4] = test system: QSOX1-a mRNA; test: QSOX1-a mRNA abundance in RNase L-knockdown (CRISPR-edited) MDA-MB-231 cells; assay type: cell-based, human; conditions: CRISPR-edited cells with RNase L knockdown
# Protocol: The CRISPR-edited MDA-MB-231 cell lines used in this study were the same as those previously reported and characterized.^8 Briefly, lentiviral constructs containing Cas9 and gRNA targeting RNase L mRNA (or a scramble control) were purchased (Transomic Tech) and transfected in HEK293T cells (ATCC CRL-11268) to harvest virus. Transduction to MDA-MB-231 cells were performed in the presence of […] polybrene (Millipore, Cat #TR-1003-G) followed by selection with puromycin.
# Analysis of mRNA Abundance by RT-qPCR. Unless stated otherwise, all RT-qPCR experiments were performed to measure nascent RNA levels by using Click-it Nascent RNA Capture Kit (Cat #C10365, Thermo Fisher) per the manufacturer's protocols. Briefly, cells were treated with 0.2 mM of ethynyl uridine (EU) in growth medium for 16 h, after which the medium was replaced with fresh growth medium lacking EU. Compound or ASO treatment was performed at the same time of initial EU treatment, and compounds were replenished after replacing the medium to remove EU. Total RNA was extracted by using a Zymo Quick-RNA Miniprep Kit as per manufacturer's protocol with DNase treatment. The click reaction and pull-down of nascent RNA were performed as described in “In Vitro Chemical-Crosslinking and Isolation by Pull-down (Chem-CLIP) with Fluorescently Labeled RNA”. […]
# [5] = test system: QSOX1 mRNA; test: Chem-CLIP pull-down of QSOX1 mRNA in live cells, RT-qPCR (dose and time dependence); assay type: cell-based, human
# Protocol: Chemical-Cross-linking and Isolation by Pull-down (Chem-CLIP) in Live Cells. MDA-MB-231 cells were seeded in 60 mm dishes and allowed to reach ˜80% confluency. The cells were then treated with 20 μM of compound in growth medium and incubated for 16 h. Cells were washed with 1×DPBS and irradiated with UV light for 10 min. Total RNA was harvested using a Zymo Quick-RNA Miniprep Kit per the manufacturer's protocol with DNase treatment. Total RNA was chemically fragmented by using an NEBNext Magnesium RNA Fragmentation Module (E6150S) per manufacturer's protocol to achieve final lengths between 100-150 nucleotides Pull-down of cross-linked RNAs was performed by adding 10 μg of total RNA to 100 μL of azide-disulfide agarose beads (Click Chemistry Tools, 1238-2) pre-washed with 25 mM HEPES, pH 7.0. The click reaction and pull-down were completed as described in “In Vitro Chemical-Crosslinking and Isolation by Pull-down (Chem-CLIP) with Fluorescently Labeled RNA”. The pulled down RNA was purified by RNA CleanXP beads (Beckman, A66514) per manufacturer's protocol.
# For dose response studies, cells were treated with varying concentration of F1 (1, 5, 20 μM) as described above for 16 h. For time course studies, cells were treated with 20 μM of for 1, 4, 8, or 16 h. With the exception of compound concentration or time at which total RNA was harvested, the remaining steps of the protocol were completed as described above for both concentration- and time-dependent studies.
# as §1
# [6] = test system: mutant RNA (U-bulge mutated to U/A base pair); test: Optical melting, mutant model RNA; assay type: binding
# Protocol: Optical Melting Experiments. The thermal stability of WT and mutant model RNAs in the presence and absence of F1-Amide was measured by optical melting. The RNA ([…]) was prepared in 1× Melting Buffer (8 mM Na2HPO4, pH 7, 10 mM NaCl, and 1 mM EDTA) and heated to 95° C. followed by cooling on ice. F1-Amide was added to the final concentration of 2 mM; an equal volume of DMSO was added to the vehicle sample. The absorbance of the solution at 260 nm was measured by a Beckman Coulter DU800 spectrophotometer as a function of temperature, from 12° C. to 85° C. at a rate of 1° C./min. The background absorbance of buffer with DMSO or compound was subtracted before fitting the curve with MeltWin (v3.5)^7 to determine the melting temperature (Tm) and the Gibbs free energy (ΔG37° C.).
SMILES,"competition of F1 cross-linking to the QSOX1-a target site (competitive Chem-CLIP) ([1]; constant concentration of F1, increasing competitor)",effect on viability [2],decrease of QSOX1-a mRNA levels [3],effect on QSOX1-a mRNA in RNase L-knockdown cells [4],cross-linking / pull-down of WT QSOX1-a 5′ UTR hairpin ([1]; in vitro Chem-CLIP),"enrichment of QSOX1 mRNA ([5]; 5 μM, 16 h incubation)","enrichment of QSOX1 mRNA ([5]; 20 μM, 1 h incubation)","enrichment of QSOX1 mRNA ([5]; 20 μM, 4 h)","enrichment of QSOX1 mRNA ([5]; 20 μM, 8 h and 16 h time points)","enrichment of QSOX1 mRNA ([5]; 20 μM, 16 h incubation)",effect on Tm or ΔG37° C. of mutant RNA [6]
CCOC(=O)C1=C(Nc2ccccc2)S/C(=C\c2ccc(OCCOCCOCCOCCNC(=O)CCC(=O)N(C)[C@H]3CC[C@@H](c4ccc(Cl)c(Cl)c4)c4ccccc43)c(O)c2)C1=O [Compound F1-RIBOTAC],dose-dependently competed off; also recorded: dose-dependently ablates,no effect on viability,~35%,ablated,–,–,–,–,–,–,–
C#CCCC1(CCC(=O)N(C)[C@H]2CC[C@@H](c3ccc(Cl)c(Cl)c3)c3ccccc32)N=N1 [Compound F1],–,–,–,–,selectively cross-linked; also recorded: significantly pulled down,~6 fold,no enrichment,~4 fold,plateauing,~12 fold,No changes
